Measured values reported in PMC8713471, “Insights Into the Inhibition of MOX-1 β-Lactamase by S02030, a Boronic Acid Transition State Inhibitor” (Frontiers in Microbiology, 2021).

Assays:
MOX-1 β-lactamase [1] = molecular target: T1, MOX-1 β-lactamase (Klebsiella pneumoniae, UniProt Q51578); test: Inhibition of cephalothin hydrolysis by purified MOX-1, […] min pre-incubation, UV/VIS (Ki and IC50); assay type: biochemical; design: gene blaMOX-1; purified MOX-1, (His)8 tag removed with thrombin
MOX-1 β-lactamase [2] = molecular target: T1, MOX-1 β-lactamase; test: X-ray crystal structure at […] Å; also Ki and IC50 with purified enzyme (cephalothin hydrolysis); assay type: biochemical; design: gene blaMOX-1; N-terminal (His)8-tagged MOX-1 for crystals (model Asp6-Arg305 and Gln310-Gly362); tag removed with thrombin for kinetics

T1 sequence (Q51578 entry or part of it): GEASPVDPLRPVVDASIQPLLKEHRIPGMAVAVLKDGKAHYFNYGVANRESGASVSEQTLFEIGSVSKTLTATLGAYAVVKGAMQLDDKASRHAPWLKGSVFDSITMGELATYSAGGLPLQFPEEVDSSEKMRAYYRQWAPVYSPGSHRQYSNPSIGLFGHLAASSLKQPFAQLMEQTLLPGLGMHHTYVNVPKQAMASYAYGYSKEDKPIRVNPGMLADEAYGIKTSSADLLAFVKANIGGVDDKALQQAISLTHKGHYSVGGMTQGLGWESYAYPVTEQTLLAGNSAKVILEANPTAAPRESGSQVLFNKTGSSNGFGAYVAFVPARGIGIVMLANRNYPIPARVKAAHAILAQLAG

Ki (MOX-1 β-lactamase [2]) | Structure (SMILES) | Ki (MOX-1 β-lactamase [1])
– | C[C@H]1[C@H](NC(=O)/C(=N\OC(C)(C)C(=O)O)c2csc(N)n2)C(=O)N1S(=O)(=O)O [Aztreonam] | 10 ± 1 nM
560 ± 30 nM | O=C(Cc1cccs1)N[C@@H](Cn1cc(C(=O)O)nn1)B(O)O [S02030] | –
